Assays:
Experiment in all cases: radiometric filter-binding kinase assay, Kinase HotSpot
Details in all cases: compound 0.5 µM; ATP 10 µM
NEK6 (human) = NEK6 (human) (UniProt Q9HC98)
RPS6KA2 KD1 KD2 (human) = RPS6KA2 KD1 KD2 (human) (UniProt Q15349)
[1] = target: TYK2 JH1 catalytic (human) (UniProt P29597)
CDK2 CCNE1 (human) = CDK2 CCNE1 (human) (UniProt P24941+P24864)
GRK5 (human) = GRK5 (human) (UniProt P34947)
LIMK1 (human) = LIMK1 (human) (UniProt P53667)
DDR2 (human) = DDR2 (human) (UniProt Q16832)
AURKB (human) = AURKB (human) (UniProt Q96GD4)
AXL (human) = AXL (human) (UniProt P30530)
SIK2 (human) = SIK2 (human) (UniProt Q9H0K1)
SGK2 (human) = SGK2 (human) (UniProt Q9HBY8)
Sequence of SGK2 (human) (Q9HBY8 whole entry, looked up): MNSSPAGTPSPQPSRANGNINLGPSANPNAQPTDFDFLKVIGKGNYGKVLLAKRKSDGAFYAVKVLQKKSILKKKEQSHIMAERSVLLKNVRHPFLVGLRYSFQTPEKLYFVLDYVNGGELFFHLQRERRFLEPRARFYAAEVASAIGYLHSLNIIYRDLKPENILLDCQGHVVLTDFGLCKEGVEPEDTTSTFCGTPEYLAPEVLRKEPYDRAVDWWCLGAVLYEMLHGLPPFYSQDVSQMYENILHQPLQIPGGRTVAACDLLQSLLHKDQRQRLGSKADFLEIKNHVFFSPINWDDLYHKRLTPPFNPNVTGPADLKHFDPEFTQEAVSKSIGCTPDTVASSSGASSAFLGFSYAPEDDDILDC

HIPK4 (human) = HIPK4 (human) (UniProt Q8NE63)
CDK1 CCNA2 (human) = CDK1 CCNA2 (human) (UniProt P06493+P20248)
Sequence of CDK1 CCNA2 (human) (P06493 whole entry, looked up): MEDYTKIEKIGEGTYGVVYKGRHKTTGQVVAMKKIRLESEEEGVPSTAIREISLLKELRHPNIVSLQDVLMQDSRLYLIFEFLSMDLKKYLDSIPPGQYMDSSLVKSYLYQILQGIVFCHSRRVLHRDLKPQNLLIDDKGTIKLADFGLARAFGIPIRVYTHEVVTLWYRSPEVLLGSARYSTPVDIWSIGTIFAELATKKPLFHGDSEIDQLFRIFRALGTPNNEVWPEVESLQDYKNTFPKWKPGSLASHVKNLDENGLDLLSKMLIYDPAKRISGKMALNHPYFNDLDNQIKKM
Sequence of CDK1 CCNA2 (human) (P20248 whole entry, looked up): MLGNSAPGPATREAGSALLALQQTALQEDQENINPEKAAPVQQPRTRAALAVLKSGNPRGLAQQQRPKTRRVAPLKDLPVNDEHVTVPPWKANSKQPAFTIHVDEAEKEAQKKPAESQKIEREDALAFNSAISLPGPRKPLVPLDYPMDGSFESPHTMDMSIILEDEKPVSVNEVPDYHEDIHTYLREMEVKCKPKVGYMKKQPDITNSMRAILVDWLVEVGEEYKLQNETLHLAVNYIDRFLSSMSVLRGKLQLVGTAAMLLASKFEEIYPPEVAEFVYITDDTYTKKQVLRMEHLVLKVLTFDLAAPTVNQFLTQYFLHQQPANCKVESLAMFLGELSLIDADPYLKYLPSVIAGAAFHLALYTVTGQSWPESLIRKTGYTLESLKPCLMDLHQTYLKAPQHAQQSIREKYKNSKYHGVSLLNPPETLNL

BRSK2 (human) = BRSK2 (human) (UniProt Q8IWQ3)
PLK3 (human) = PLK3 (human) (UniProt Q9H4B4)
LRRK2 (human) = LRRK2 (human) (UniProt Q5S007)
CSNK2A1 (human) = CSNK2A1 (human) (UniProt P68400)
CSNK1G3 (human) = CSNK1G3 (human) (UniProt Q9Y6M4)
INSR (human) = INSR (human) (UniProt P06213)
MAP3K8 (human) = MAP3K8 (human) (UniProt P41279)
ROCK2 (human) = ROCK2 (human) (UniProt O75116)
STK16 (human) = STK16 (human) (UniProt O75716)
Sequence of STK16 (human) (O75716 whole entry, looked up): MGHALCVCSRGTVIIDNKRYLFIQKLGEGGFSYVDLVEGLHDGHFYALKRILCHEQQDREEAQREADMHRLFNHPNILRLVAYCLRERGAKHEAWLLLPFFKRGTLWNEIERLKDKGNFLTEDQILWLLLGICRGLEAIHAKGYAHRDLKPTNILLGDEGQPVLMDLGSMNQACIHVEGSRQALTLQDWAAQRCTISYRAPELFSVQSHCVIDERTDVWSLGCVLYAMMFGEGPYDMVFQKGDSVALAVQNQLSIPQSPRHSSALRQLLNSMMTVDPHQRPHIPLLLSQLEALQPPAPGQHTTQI

NEK4 (human) = NEK4 (human) (UniProt P51957)
TEK (human) = TEK (human) (UniProt Q02763)
PIM3 (human) = PIM3 (human) (UniProt Q86V86)
MAPK8 (human) = MAPK8 (human) (UniProt P45983)
FGR (human) = FGR (human) (UniProt P09769)
Sequence of FGR (human) (P09769 whole entry, looked up): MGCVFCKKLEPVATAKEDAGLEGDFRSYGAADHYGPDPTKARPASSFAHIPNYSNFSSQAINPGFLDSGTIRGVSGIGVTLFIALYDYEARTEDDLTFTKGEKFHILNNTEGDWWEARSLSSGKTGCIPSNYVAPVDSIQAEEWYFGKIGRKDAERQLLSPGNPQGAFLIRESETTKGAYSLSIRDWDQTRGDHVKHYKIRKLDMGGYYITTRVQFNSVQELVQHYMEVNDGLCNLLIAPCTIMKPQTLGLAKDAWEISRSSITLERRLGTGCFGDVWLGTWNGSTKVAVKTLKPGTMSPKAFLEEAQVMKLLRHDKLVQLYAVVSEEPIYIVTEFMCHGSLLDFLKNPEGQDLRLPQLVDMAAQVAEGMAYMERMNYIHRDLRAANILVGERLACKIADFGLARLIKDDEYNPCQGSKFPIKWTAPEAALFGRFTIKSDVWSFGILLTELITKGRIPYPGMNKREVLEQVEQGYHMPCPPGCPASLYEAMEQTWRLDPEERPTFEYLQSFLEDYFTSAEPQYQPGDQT

JAK3 JH1 JH2 (human) = JAK3 JH1 JH2 (human) (UniProt P52333)
FER (human) = FER (human) (UniProt P16591)
MAP4K2 (human) = MAP4K2 (human) (UniProt Q12851)
SRPK3 (human) = SRPK3 (human) (UniProt Q9UPE1)
Sequence of SRPK3 (human) (Q9UPE1 whole entry, looked up): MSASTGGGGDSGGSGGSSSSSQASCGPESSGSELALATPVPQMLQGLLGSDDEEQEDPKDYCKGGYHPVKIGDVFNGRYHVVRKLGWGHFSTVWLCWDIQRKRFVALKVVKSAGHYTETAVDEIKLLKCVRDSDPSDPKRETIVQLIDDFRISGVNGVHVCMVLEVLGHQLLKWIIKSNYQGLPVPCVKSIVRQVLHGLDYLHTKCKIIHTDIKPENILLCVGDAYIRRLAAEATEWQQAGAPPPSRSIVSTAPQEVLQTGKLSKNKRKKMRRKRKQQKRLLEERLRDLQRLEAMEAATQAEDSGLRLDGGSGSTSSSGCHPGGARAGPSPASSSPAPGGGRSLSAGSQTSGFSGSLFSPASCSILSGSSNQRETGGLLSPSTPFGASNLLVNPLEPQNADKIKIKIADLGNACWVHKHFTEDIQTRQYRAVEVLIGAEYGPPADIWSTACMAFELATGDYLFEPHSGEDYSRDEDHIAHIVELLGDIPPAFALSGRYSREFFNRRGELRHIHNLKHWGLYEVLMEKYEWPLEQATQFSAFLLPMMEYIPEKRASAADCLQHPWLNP

DYRK4 (human) = DYRK4 (human) (UniProt Q9NR20)
RIPK2 (human) = RIPK2 (human) (UniProt O43353)
DYRK2 (human) = DYRK2 (human) (UniProt Q92630)
CDK7 CCNH MNAT1 (human) = CDK7 CCNH MNAT1 (human) (UniProt P50613+P51948+P51946)
ULK2 (human) = ULK2 (human) (UniProt Q8IYT8)
MST4 (human) = MST4 (human) (UniProt Q9P289)
PRKD1 (human) = PRKD1 (human) (UniProt Q15139)
BLK (human) = BLK (human) (UniProt P51451)
MAP3K3 (human) = MAP3K3 (human) (UniProt Q99759)
CSNK1G2 (human) = CSNK1G2 (human) (UniProt P78368)
GRK4 (human) = GRK4 (human) (UniProt P32298)

Sequence of GRK5 (human) (P34947 whole entry, looked up): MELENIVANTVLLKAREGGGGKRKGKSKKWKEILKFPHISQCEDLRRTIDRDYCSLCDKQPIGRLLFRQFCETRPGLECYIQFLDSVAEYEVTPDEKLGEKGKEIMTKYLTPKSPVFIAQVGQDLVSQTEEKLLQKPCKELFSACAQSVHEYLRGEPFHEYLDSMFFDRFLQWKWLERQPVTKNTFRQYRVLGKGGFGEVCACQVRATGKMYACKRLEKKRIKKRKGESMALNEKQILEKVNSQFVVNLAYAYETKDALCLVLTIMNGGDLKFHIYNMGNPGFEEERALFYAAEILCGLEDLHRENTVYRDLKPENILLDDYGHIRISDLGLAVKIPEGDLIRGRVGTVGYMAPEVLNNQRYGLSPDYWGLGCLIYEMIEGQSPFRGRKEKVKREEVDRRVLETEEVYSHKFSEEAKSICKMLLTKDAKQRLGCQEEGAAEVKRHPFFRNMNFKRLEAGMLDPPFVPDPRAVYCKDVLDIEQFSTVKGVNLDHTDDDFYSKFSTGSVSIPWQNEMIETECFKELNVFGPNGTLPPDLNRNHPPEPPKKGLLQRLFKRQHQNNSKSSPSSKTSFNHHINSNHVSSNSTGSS
Sequence of RPS6KA2 KD1 KD2 (human) (Q15349 whole entry, looked up): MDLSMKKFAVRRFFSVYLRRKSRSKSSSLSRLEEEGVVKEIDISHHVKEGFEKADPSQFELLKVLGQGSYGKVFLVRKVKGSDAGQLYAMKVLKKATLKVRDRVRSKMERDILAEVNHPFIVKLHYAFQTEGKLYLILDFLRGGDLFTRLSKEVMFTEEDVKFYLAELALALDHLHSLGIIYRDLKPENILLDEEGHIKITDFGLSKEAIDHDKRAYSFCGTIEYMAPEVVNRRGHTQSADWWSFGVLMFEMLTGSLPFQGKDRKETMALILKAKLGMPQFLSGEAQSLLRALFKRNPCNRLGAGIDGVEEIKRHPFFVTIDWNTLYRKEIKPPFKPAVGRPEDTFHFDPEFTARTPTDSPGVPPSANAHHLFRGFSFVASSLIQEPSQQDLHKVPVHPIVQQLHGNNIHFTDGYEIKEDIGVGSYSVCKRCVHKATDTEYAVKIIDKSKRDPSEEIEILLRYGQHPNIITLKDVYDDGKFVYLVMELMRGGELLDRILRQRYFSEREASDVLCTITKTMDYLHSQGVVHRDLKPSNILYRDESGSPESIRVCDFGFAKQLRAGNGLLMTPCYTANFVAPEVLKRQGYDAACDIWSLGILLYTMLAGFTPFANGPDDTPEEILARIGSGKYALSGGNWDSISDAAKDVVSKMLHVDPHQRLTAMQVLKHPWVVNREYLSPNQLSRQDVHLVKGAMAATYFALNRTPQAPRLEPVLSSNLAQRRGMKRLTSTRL
Sequence of TYK2 JH1 catalytic (human) (P29597 whole entry, looked up): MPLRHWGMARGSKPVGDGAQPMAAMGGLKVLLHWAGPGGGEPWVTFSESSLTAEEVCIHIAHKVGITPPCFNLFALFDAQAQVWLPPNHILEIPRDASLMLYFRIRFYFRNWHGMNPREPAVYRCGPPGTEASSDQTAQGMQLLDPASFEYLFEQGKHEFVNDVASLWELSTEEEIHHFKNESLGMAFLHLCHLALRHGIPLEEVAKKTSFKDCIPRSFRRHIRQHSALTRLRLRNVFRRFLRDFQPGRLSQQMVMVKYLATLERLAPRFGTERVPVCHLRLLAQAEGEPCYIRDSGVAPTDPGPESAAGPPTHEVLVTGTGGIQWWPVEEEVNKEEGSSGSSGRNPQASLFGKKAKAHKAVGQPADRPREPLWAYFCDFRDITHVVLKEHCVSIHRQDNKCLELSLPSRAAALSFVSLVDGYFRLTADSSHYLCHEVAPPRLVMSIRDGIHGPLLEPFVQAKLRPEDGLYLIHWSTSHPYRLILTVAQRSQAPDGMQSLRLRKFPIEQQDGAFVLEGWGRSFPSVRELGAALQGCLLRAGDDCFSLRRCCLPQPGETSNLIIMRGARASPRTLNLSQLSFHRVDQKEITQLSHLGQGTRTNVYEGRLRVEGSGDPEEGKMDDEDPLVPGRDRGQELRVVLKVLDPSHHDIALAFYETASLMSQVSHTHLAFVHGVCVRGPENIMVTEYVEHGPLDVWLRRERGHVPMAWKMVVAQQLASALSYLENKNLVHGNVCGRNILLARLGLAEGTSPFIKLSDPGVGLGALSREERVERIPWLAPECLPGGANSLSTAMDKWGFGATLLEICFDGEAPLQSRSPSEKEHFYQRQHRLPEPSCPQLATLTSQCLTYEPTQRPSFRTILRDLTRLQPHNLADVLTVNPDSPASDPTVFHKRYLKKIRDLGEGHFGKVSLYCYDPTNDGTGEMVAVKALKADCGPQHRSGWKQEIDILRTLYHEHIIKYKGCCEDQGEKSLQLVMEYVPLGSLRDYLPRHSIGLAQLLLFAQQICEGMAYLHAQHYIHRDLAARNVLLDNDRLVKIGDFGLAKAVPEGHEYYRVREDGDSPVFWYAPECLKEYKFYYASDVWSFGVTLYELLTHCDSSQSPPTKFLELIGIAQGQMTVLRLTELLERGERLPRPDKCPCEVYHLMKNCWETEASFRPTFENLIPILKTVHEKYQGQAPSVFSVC

`NC(=O)c1ccc(N(C(N)=O)c2c(F)cccc2F)nc1-c1ccc(F)cc1F` gave a residual activity (NEK6 (human)) of 90.5%, a residual activity (RPS6KA2 KD1 KD2 (human)) of 97.5% and a residual activity [1] of 93.5%. For the same compound, the residual activity (CDK2 CCNE1 (human)) was 93.1%, the residual activity (GRK5 (human)) was 103% and the residual activity (LIMK1 (human)) was 98.5%. For the same compound, the residual activity (DDR2 (human)) was 100%, the residual activity (AURKB (human)) was 91.3% and the residual activity (AXL (human)) was 101%. The residual activity (SIK2 (human)) was 95.1%, the residual activity (SGK2 (human)) was 107% and the residual activity (HIPK4 (human)) was 90.5%. For the same compound, the residual activity (CDK1 CCNA2 (human)) was 101%, the residual activity (BRSK2 (human)) was 96.6% and the residual activity (PLK3 (human)) was 94.7%. For the same compound, the residual activity (LRRK2 (human)) was 82%, the residual activity (CSNK2A1 (human)) was 111% and the residual activity (CSNK1G3 (human)) was 103%. The residual activity (INSR (human)) was 104%, the residual activity (MAP3K8 (human)) was 94.3% and the residual activity (ROCK2 (human)) was 97.7%. It also gave a residual activity (STK16 (human)) of 100%, a residual activity (NEK4 (human)) of 104% and a residual activity (TEK (human)) of 96.7%. It also gave a residual activity (PIM3 (human)) of 97.7%, a residual activity (MAPK8 (human)) of 100% and a residual activity (FGR (human)) of 94.7%. It also gave a residual activity (JAK3 JH1 JH2 (human)) of 95.7%, a residual activity (FER (human)) of 95.6% and a residual activity (MAP4K2 (human)) of 108%. The residual activity (SRPK3 (human)) was 105%, the residual activity (DYRK4 (human)) was 96.3% and the residual activity (RIPK2 (human)) was 101%. For the same compound, the residual activity (DYRK2 (human)) was 102%, the residual activity (CDK7 CCNH MNAT1 (human)) was 102% and the residual activity (ULK2 (human)) was 101%. For the same compound, the residual activity (MST4 (human)) was 117%, the residual activity (PRKD1 (human)) was 97.7% and the residual activity (BLK (human)) was 100%. For the same compound, the residual activity (MAP3K3 (human)) was 118%, the residual activity (CSNK1G2 (human)) was 99.6% and the residual activity (GRK4 (human)) was 90.7%.

Compound `CC(C)n1cnc2c(Nc3cccc(Cl)c3)nc(NCCO)nc21` has a residual activity (NEK6 (human)) of 101%, a residual activity (RPS6KA2 KD1 KD2 (human)) of 62.1% and a residual activity [1] of 105%. It also gave a residual activity (CDK2 CCNE1 (human)) of 37.2%, a residual activity (GRK5 (human)) of 99.4% and a residual activity (LIMK1 (human)) of 105%. For the same compound, the residual activity (DDR2 (human)) was 93.3%, the residual activity (AURKB (human)) was 106% and the residual activity (AXL (human)) was 91.3%. The residual activity (SIK2 (human)) was 107%, the residual activity (SGK2 (human)) was 97.4% and the residual activity (HIPK4 (human)) was 94.6%. It also gave a residual activity (CDK1 CCNA2 (human)) of 78.5%, a residual activity (BRSK2 (human)) of 95% and a residual activity (PLK3 (human)) of 48.5%. It also gave a residual activity (LRRK2 (human)) of 72.8%, a residual activity (CSNK2A1 (human)) of 83.8% and a residual activity (CSNK1G3 (human)) of 6.89%. For the same compound, the residual activity (INSR (human)) was 97.3%, the residual activity (MAP3K8 (human)) was 92.2% and the residual activity (ROCK2 (human)) was 97.5%. For the same compound, the residual activity (STK16 (human)) was 89.8%, the residual activity (NEK4 (human)) was 89.1% and the residual activity (TEK (human)) was 97.4%. For the same compound, the residual activity (PIM3 (human)) was 90.4%, the residual activity (MAPK8 (human)) was 94.8% and the residual activity (FGR (human)) was 61.5%. It also gave a residual activity (JAK3 JH1 JH2 (human)) of 24.7%, a residual activity (FER (human)) of 79.5% and a residual activity (MAP4K2 (human)) of 87.6%. It also gave a residual activity (SRPK3 (human)) of 47.7%, a residual activity (DYRK4 (human)) of 91.2% and a residual activity (RIPK2 (human)) of 84.3%. It also gave a residual activity (DYRK2 (human)) of 93.9%, a residual activity (CDK7 CCNH MNAT1 (human)) of 78.5% and a residual activity (ULK2 (human)) of 89%. For the same compound, the residual activity (MST4 (human)) was 87.9%, the residual activity (PRKD1 (human)) was 99.2% and the residual activity (BLK (human)) was 91.2%. For the same compound, the residual activity (MAP3K3 (human)) was 97.4%, the residual activity (CSNK1G2 (human)) was 20.6% and the residual activity (GRK4 (human)) was 93.5%.

`Cc1cc2ncc(-c3ccccc3)nc2cc1C` was tested, and the residual activity (NEK6 (human)) was 101%, the residual activity (RPS6KA2 KD1 KD2 (human)) was 92.5% and the residual activity [1] was 97.6%. It also gave a residual activity (CDK2 CCNE1 (human)) of 91.8%, a residual activity (GRK5 (human)) of 107% and a residual activity (LIMK1 (human)) of 102%. It also gave a residual activity (DDR2 (human)) of 95.7%, a residual activity (AURKB (human)) of 85.4% and a residual activity (AXL (human)) of 100%. It also gave a residual activity (SIK2 (human)) of 87.4%, a residual activity (SGK2 (human)) of 101% and a residual activity (HIPK4 (human)) of 120%. The residual activity (CDK1 CCNA2 (human)) was 94.4%, the residual activity (BRSK2 (human)) was 102% and the residual activity (PLK3 (human)) was 90.1%. The residual activity (LRRK2 (human)) was 94.4%, the residual activity (CSNK2A1 (human)) was 102% and the residual activity (CSNK1G3 (human)) was 99%. The residual activity (INSR (human)) was 94%, the residual activity (MAP3K8 (human)) was 106% and the residual activity (ROCK2 (human)) was 88.1%. The residual activity (STK16 (human)) was 108%, the residual activity (NEK4 (human)) was 99.3% and the residual activity (TEK (human)) was 99.7%. The residual activity (PIM3 (human)) was 103%, the residual activity (MAPK8 (human)) was 101% and the residual activity (FGR (human)) was 99.1%. The residual activity (JAK3 JH1 JH2 (human)) was 101%, the residual activity (FER (human)) was 91% and the residual activity (MAP4K2 (human)) was 113%. It also gave a residual activity (SRPK3 (human)) of 91.4%, a residual activity (DYRK4 (human)) of 90.3% and a residual activity (RIPK2 (human)) of 98.3%. For the same compound, the residual activity (DYRK2 (human)) was 95.9%, the residual activity (CDK7 CCNH MNAT1 (human)) was 98.5% and the residual activity (ULK2 (human)) was 108%. The residual activity (MST4 (human)) was 97.6%, the residual activity (PRKD1 (human)) was 100% and the residual activity (BLK (human)) was 96.5%. The residual activity (MAP3K3 (human)) was 103%, the residual activity (CSNK1G2 (human)) was 86.5% and the residual activity (GRK4 (human)) was 94.9%.

Reference: the kinase profiling compilation of Christmann-Franck et al. (2016)
